Test: xn = mol fraction of the nth substance listed

CC(C)CC(C)(C)C + CCCCCCCCCC
298.15 K, 101 kPa
Settings	viscosity [mPa·s]
x1 = 0.08287	0.7981
x1 = 0.2249	0.7573
x1 = 0.3493	0.7059
x1 = 0.4309	0.6689
x1 = 0.5526	0.6214
x1 = 0.6412	0.5981
x1 = 0.735	0.5645
x1 = 0.8255	0.5303
x1 = 0.8936	0.512
x1 = 0.9357	0.4966

O=C1CCCCC1 + CCCCCCCCCC
viscosity [mPa·s], 101.33 kPa
Settings	x1 = 0.1023	x1 = 0.2073	x1 = 0.3011	x1 = 0.4017	x1 = 0.5042	x1 = 0.6034	x1 = 0.703	x1 = 0.8	x1 = 0.9018
298.15 K	0.87	0.902	0.937	0.991	1.063	1.143	1.256	1.439	1.625
303.15 K	0.806	0.836	0.868	0.916	0.984	1.053	1.152	1.316	1.48
308.15 K	0.752	0.779	0.812	0.851	0.909	0.973	1.064	1.212	1.357

CCC12CC3CC(CC(C3)C1)C2 + CCCCCCCCCCC
viscosity [mPa·s], 100 kPa
Settings	x1 = 0.1012	x1 = 0.2042	x1 = 0.3018	x1 = 0.4017	x1 = 0.5014	x1 = 0.6059	x1 = 0.7013	x1 = 0.8052	x1 = 0.8999
293.15 K	1.348	1.47	1.631	1.86	2.179	2.592	3.18	4.01	5.036
298.15 K	1.203	1.334	1.489	1.692	1.93	2.302	2.77	3.47	4.339
303.15 K	1.108	1.225	1.366	1.546	1.764	2.091	2.514	3.129	3.854
308.15 K	1.025	1.133	1.271	1.418	1.601	1.883	2.235	2.77	3.404
313.15 K	0.953	1.049	1.173	1.311	1.472	1.728	2.039	2.509	3.078
318.15 K	0.887	0.983	1.092	1.22	1.377	1.6	1.882	2.284	2.781
323.15 K	0.829	0.92	1.013	1.135	1.272	1.472	1.723	2.094	2.512

CC(C)CC(C)(C)C + CCCCCCCCCCCC
viscosity [mPa·s]
Settings	298.15 K	323.14 K
100 kPa, x1 = 0.5	0.8601	0.6179
101 kPa, x1 = 0.0923	1.236	–
101 kPa, x1 = 0.1569	1.169	–
101 kPa, x1 = 0.2503	1.085	–
101 kPa, x1 = 0.3747	0.9632	–
101 kPa, x1 = 0.4786	0.8653	–
101 kPa, x1 = 0.5889	0.7696	–
101 kPa, x1 = 0.6762	0.7013	–
101 kPa, x1 = 0.7597	0.6346	–
101 kPa, x1 = 0.8459	0.5724	–
101 kPa, x1 = 0.9062	0.5377	–
101 kPa, x1 = 0.9457	0.5099	–
101 kPa, x1 = 0.9733	0.4948	–

CCCCCCO + CCCCCCCCCCCC
298.15 K, 101 kPa
Settings	viscosity [mPa·s]
x2 = 0.0555	3.93
x2 = 0.0999	3.52
x2 = 0.1555	3.06
x2 = 0.1999	2.74
x2 = 0.2554	2.38
x2 = 0.2999	2.12
x2 = 0.3555	1.85
x2 = 0.3998	1.66
x2 = 0.4555	1.47
x2 = 0.4999	1.34
x2 = 0.5554	1.21
x2 = 0.5998	1.14
x2 = 0.6554	1.07
x2 = 0.6999	1.04
x2 = 0.7555	1.02
x2 = 0.7997	1.03
x2 = 0.8555	1.06
x2 = 0.8998	1.09
x2 = 0.9555	1.15

O=C1CCCCC1 + CCCCCCCCCCCC
viscosity [mPa·s], 101.33 kPa
Settings	x1 = 0.1085	x1 = 0.1979	x1 = 0.3049	x1 = 0.4052	x1 = 0.5049	x1 = 0.6012	x1 = 0.7012	x1 = 0.8014	x1 = 0.9008
298.15 K	1.348	1.352	1.368	1.393	1.42	1.474	1.533	1.614	1.75
303.15 K	1.237	1.238	1.252	1.272	1.302	1.344	1.398	1.469	1.623
308.15 K	1.135	1.139	1.151	1.171	1.199	1.232	1.281	1.349	1.483

Reference: the CheMixHub viscosity set
